# Reference: ChEMBL document CHEMBL4177607, “Antibacterial constituents of the plant family Amaryllidaceae” (2017)
# System: Escherichia coli
# Experiment: Antibacterial activity against Escherichia coli assessed as diameter of inhibition zone at 1 mg/ml
# Format: functional
# Conditions: read-out: DIZ
row,Structure (SMILES),zone of inhibition at 1000 µg/mL
1,COc1cc2c(cc1OC)[C@@H](O)O[C@@H]1CC=C3CCN(C)[C@H]3[C@H]21,15 mm
2,COc1cc2c(cc1OC)[C@H]1[C@H]3C(=CC[C@H]1O[C@@H]2OC)CCN3C,14 mm
3,O=C1N[C@@H]2C(=C[C@H](O)[C@@H](O)[C@H]2O)c2cc3c(cc21)OCO3,12 mm
4,CC[C@H](CC[C@@H](C)[C@H]1CC[C@H]2[C@@H]3CC=C4C[C@@H](O)CC[C@]4(C)[C@H]3CC[C@]12C)C(C)C [BETA-SITOSTEROL],13 mm

# System: Staphylococcus aureus
# Experiment: Antibacterial activity against Staphylococcus aureus assessed as diameter of inhibition zone at 1 mg/ml
# Format: functional
# Conditions: read-out: DIZ
row,Structure (SMILES),zone of inhibition at 1000 µg/mL
1,COc1cc2c(cc1OC)[C@@H](O)O[C@@H]1CC=C3CCN(C)[C@H]3[C@H]21,14 mm
2,COc1cc2c(cc1OC)[C@H]1[C@H]3C(=CC[C@H]1O[C@@H]2OC)CCN3C,14 mm
3,O=C1N[C@@H]2C(=C[C@H](O)[C@@H](O)[C@H]2O)c2cc3c(cc21)OCO3,11 mm
4,CC[C@H](CC[C@@H](C)[C@H]1CC[C@H]2[C@@H]3CC=C4C[C@@H](O)CC[C@]4(C)[C@H]3CC[C@]12C)C(C)C [BETA-SITOSTEROL],15 mm

# System: Escherichia coli
# Experiment: Antibacterial activity against Escherichia coli after 24 hrs by broth microdilution method
# Format: functional
# Conditions: not given
row,Structure (SMILES),MIC
1,CCCC(=O)Oc1ccc([C@@H]2CC(=O)c3c(O)c(C)c(O)c(C)c3O2)cc1,4 µg/mL
2,CCCCCCCC(=O)Oc1ccc([C@@H]2CC(=O)c3c(O)c(C)c(O)c(C)c3O2)cc1,32 µg/mL
3,CCCCCCCC(=O)Oc1c(C)c(O)c2c(c1C)O[C@H](c1ccc(O)cc1)CC2=O,16 µg/mL
4,COc1cc2c(c(O)c1C)C(=O)C(O)C(c1ccc(O)cc1)O2 (configuration not stated),16 µg/mL
5,CCCCCCCCCCCC(=O)Oc1ccc([C@@H]2CC(=O)c3c(O)c(C)c(O)c(C)c3O2)cc1,8 µg/mL
6,Cc1ccc(C(=O)Oc2ccc([C@@H]3CC(=O)c4c(O)c(C)c(OC(=O)c5ccc(C)cc5)c(C)c4O3)cc2)cc1,8 µg/mL
7,CCCC(=O)Oc1ccc([C@@H]2CC(=O)c3c(O)c(C)c(OC(=O)CCC)c(C)c3O2)cc1,2 µg/mL
8,O=C1N[C@H]2[C@H](O)[C@H](O)[C@@H](O)C[C@@H]2c2cc3c(c(O)c21)OCO3,4 µg/mL
9,Cc1c(O)c(C)c2c(c1O)C(=O)C[C@@H](c1ccc(O)cc1)O2 [FARREROL],4 µg/mL
10,COc1c(C)c(O)c2c(=O)cc(-c3ccc(O)cc3)oc2c1C [SIDEROXYLIN],32 µg/mL

# System: Pseudomonas aeruginosa
# Experiment: Antibacterial activity against Pseudomonas aeruginosa after 24 hrs by broth microdilution method
# Format: functional
# Conditions: not given
row,Structure (SMILES),MIC
1,CCCC(=O)Oc1ccc([C@@H]2CC(=O)c3c(O)c(C)c(O)c(C)c3O2)cc1,8 µg/mL
2,CCCCCCCC(=O)Oc1ccc([C@@H]2CC(=O)c3c(O)c(C)c(O)c(C)c3O2)cc1,16 µg/mL
3,CCCCCCCC(=O)Oc1c(C)c(O)c2c(c1C)O[C@H](c1ccc(O)cc1)CC2=O,32 µg/mL
4,COc1cc2c(c(O)c1C)C(=O)C(O)C(c1ccc(O)cc1)O2 (configuration not stated),32 µg/mL
5,CCCCCCCCCCCC(=O)Oc1ccc([C@@H]2CC(=O)c3c(O)c(C)c(O)c(C)c3O2)cc1,16 µg/mL
6,Cc1ccc(C(=O)Oc2ccc([C@@H]3CC(=O)c4c(O)c(C)c(OC(=O)c5ccc(C)cc5)c(C)c4O3)cc2)cc1,16 µg/mL
7,CCCC(=O)Oc1ccc([C@@H]2CC(=O)c3c(O)c(C)c(OC(=O)CCC)c(C)c3O2)cc1,4 µg/mL
8,O=C1N[C@H]2[C@H](O)[C@H](O)[C@@H](O)C[C@@H]2c2cc3c(c(O)c21)OCO3,16 µg/mL
9,Cc1c(O)c(C)c2c(c1O)C(=O)C[C@@H](c1ccc(O)cc1)O2 [FARREROL],8 µg/mL
10,COc1c(C)c(O)c2c(=O)cc(-c3ccc(O)cc3)oc2c1C [SIDEROXYLIN],64 µg/mL

# System: Shigella flexneri
# Experiment: Antibacterial activity against Shigella flexneri after 24 hrs by broth microdilution method
# Format: functional
# Conditions: not given
row,Structure (SMILES),MIC
1,CCCC(=O)Oc1ccc([C@@H]2CC(=O)c3c(O)c(C)c(O)c(C)c3O2)cc1,2 µg/mL
2,CCCCCCCC(=O)Oc1ccc([C@@H]2CC(=O)c3c(O)c(C)c(O)c(C)c3O2)cc1,64 µg/mL
3,CCCCCCCC(=O)Oc1c(C)c(O)c2c(c1C)O[C@H](c1ccc(O)cc1)CC2=O,16 µg/mL
4,COc1cc2c(c(O)c1C)C(=O)C(O)C(c1ccc(O)cc1)O2 (configuration not stated),4 µg/mL
5,CCCCCCCCCCCC(=O)Oc1ccc([C@@H]2CC(=O)c3c(O)c(C)c(O)c(C)c3O2)cc1,8 µg/mL
6,Cc1ccc(C(=O)Oc2ccc([C@@H]3CC(=O)c4c(O)c(C)c(OC(=O)c5ccc(C)cc5)c(C)c4O3)cc2)cc1,8 µg/mL
7,CCCC(=O)Oc1ccc([C@@H]2CC(=O)c3c(O)c(C)c(OC(=O)CCC)c(C)c3O2)cc1,2 µg/mL
8,O=C1N[C@H]2[C@H](O)[C@H](O)[C@@H](O)C[C@@H]2c2cc3c(c(O)c21)OCO3,4 µg/mL
9,Cc1c(O)c(C)c2c(c1O)C(=O)C[C@@H](c1ccc(O)cc1)O2 [FARREROL],2 µg/mL
10,COc1c(C)c(O)c2c(=O)cc(-c3ccc(O)cc3)oc2c1C [SIDEROXYLIN],8 µg/mL

# System: Rhodococcus fascians
# Experiment: Antibacterial activity against Corynebacterium fascians assessed as diameter of inhibition zone at 10 mM after 48 to 72 hrs by paper disc method
# Format: functional
# Conditions: Rhodococcoides fascians; read-out: DIZ
row,Structure (SMILES),zone of inhibition at 10000 µM
1,Oc1ccc2c3c1c1cc4c(cc1c[n+]3CC2)OCO4,10 mm
2,O=c1c2cc3c(cc2c2cccc4c2n1CC4)OCO3,25 mm
3,Oc1cc2c3c(c1)c1cc4c(cc1c[n+]3CC2)OCO4,0 mm
4,Oc1cc2c3c(c1)-c1cc4c(cc1CN3CC2)OCO4,0 mm
5,c1cc2c3c(c1)-c1cc4c(cc1CN3CC2)OCO4 [ANHYDROLYCORINE],25 mm
6,c1cc2c3c(c1)c1cc4c(cc1c[n+]3CC2)OCO4 [ANHYDROLYCORINIUM CHLORIDE],30 mm

# System: Edwardsiella ictaluri
# Experiment: Antibacterial activity against Edwardsiella ictaluri after 24 hrs
# Format: functional
# Conditions: not given
row,Structure (SMILES),MIC
1,Cl.O[C@H]1[C@H]2c3cc4c(cc3CN3CCC(=C[C@@H]1O)[C@H]23)OCO4,> 32 µg/mL

# System: Flavobacterium columnare
# Experiment: Antibacterial activity against Flavobacterium columnare ALM-00-173 after 24 hrs
# Format: functional
# Conditions: ALM-00-173, 24 h
row,Structure (SMILES),MIC
1,Cl.O[C@H]1[C@H]2c3cc4c(cc3CN3CCC(=C[C@@H]1O)[C@H]23)OCO4,3 µg/mL
2,O=c1c2cc3c(cc2c2cccc4c2n1CC4)OCO3,10 µM
3,Oc1cc2c3c(c1)c1cc4c(cc1c[n+]3CC2)OCO4,1 µM

# System: Flavobacterium columnare
# Experiment: Antibacterial activity against Flavobacterium columnare BioMed after 24 hrs
# Format: functional
# Conditions: not given
row,Structure (SMILES),MIC
1,Cl.O[C@H]1[C@H]2c3cc4c(cc3CN3CCC(=C[C@@H]1O)[C@H]23)OCO4,32 µg/mL
2,O=c1c2cc3c(cc2c2cccc4c2n1CC4)OCO3,100 µM
3,Oc1cc2c3c(c1)c1cc4c(cc1c[n+]3CC2)OCO4,10 µM

# System: Staphylococcus aureus
# Experiment: Antibacterial activity against Staphylococcus aureus
# Format: functional
# Conditions: not given
row,Structure (SMILES),MIC
1,Cl.O[C@H]1[C@H]2c3cc4c(cc3CN3CCC(=C[C@@H]1O)[C@H]23)OCO4,> 32 µg/mL
